# Results reported in paper PMC7830115, “Design, Synthesis, Molecular Docking, and Tumor Resistance Reversal Activity Evaluation of Matrine Derivative with Thiophene Structure” (Molecules, 2021).
# Assays:
# CNE2 = experiment: MTT cytotoxicity assay, CNE2; format: cell-based; conditions: Homo sapiens, CNE-2, 72 h, mean ± SD
# Method: (§1) Prior to determining the combined inhibitory effects against NPC CDDP-resistance cells, the cytotoxicity effects of these 8 derivatives were evaluated against three NPC cell lines (CNE2, HONE1, and HK-1) and CDDP resistance cell line (CNE2/CDDP) by using MTT (3-(4,5-dimethyl-2-thiazolyl)-2,5-diphenyl-2-H-tetrazolium bromide) assays. […] Moreover, a liver normal cell LO2 was involved to evaluate the selectivity of these 8 compounds by using MTT assays.
# (§2) Nasopharyngeal carcinoma cells (CNE2, HONE1, and CNE2/CDDP) were purchased from Shanghai Aulu Biological Technologh Co., Ltd. (Shanghai, China). HK-1 cell was purchased from Shanghai Shunran Biological Technologh Co., Ltd. CNE2, HONE1, and HK-1 were cultured in DMEM medium supplemented with 10% fetal bovine serum, 1% penicillin-streptomycin. CDDP-resistant NPC cell CNE2/CDDP was cultured in DMEM medium supplemented with CDDP to sustain its drug resistance. Cell viability was detected using the MTT assay. All the 8 derivatives were resolved with DMSO to make a storage solution at 1 M, and CDDP was resolved with phosphate buffer saline (PBS) to make a storage solution at 100 mM. The maximum concentrations of these 8 derivatives and CDDP used in MTT assays were set as 1 mM and 100 µM diluted with DMEM medium, respectively. Medium with 0.1% DMSO was set as control. To begin, an initial MTT assay was conducted to evaluate the cytotoxicity of 3a~3h with a dose range of 50, 100, 200, 400, and 800 µM. Then, a more precise dose range was set to calculate the IC50 of each compound (For 3a~3e: 50, 100, 200, 400, 600, and 800 µM; for 3f~3h: 12.5, 25, 50, 100, 200, and 400 µM). Then, 5000 cells were seeded in a 96-well plate for each well and treated with respective compounds at different concentrations for 72 h following additional treatment with MTT for 2~3 h. Then, MTT was removed and 150 µL DMSO was added into each well and the absorption values were measured at 490 nm using a SpectraMAX M5plate reader (Silicon Valley, CA, USA).
# LO2 = experiment: MTT cytotoxicity assay, LO2 normal liver cell; format: cell-based; conditions: Homo sapiens, L02, 72 h, mean ± SD
# Method: as §1, §2
# HK-1 = experiment: MTT cytotoxicity assay, HK-1; format: cell-based; conditions: HK-1, 72 h, mean ± SD
# Method: as §1, §2
# HONE1 = experiment: MTT cytotoxicity assay, HONE1; format: cell-based; conditions: Homo sapiens, HONE1, 72 h, mean ± SD
# Method: as §1, §2
# CNE2/CDDP = experiment: MTT cytotoxicity assay, CNE2/CDDP; format: cell-based; conditions: Homo sapiens, CNE-2, 72 h, cisplatin resistant cell line, mean ± SD
# Method: as §1, §2
# [1] = system: NPC cell lines (CNE2, HONE1, and HK-1) and CDDP resistance cell line (CNE2/CDDP); experiment: MTT cytotoxicity, summary over NPC cell lines and CDDP resistance cell line; format: cell-based; conditions: range over CNE2, HONE1, HK-1 and CNE2/CDDP, read-out: IC50, anti-proliferative effects
# Method: as §1
# Nasopharyngeal carcinoma cells (CNE2, HONE1, and CNE2/CDDP) were purchased from Shanghai Aulu Biological Technologh Co., Ltd. (Shanghai, China). HK-1 cell was purchased from Shanghai Shunran Biological Technologh Co., Ltd. CNE2, HONE1, and HK-1 were cultured in DMEM medium supplemented with 10% fetal bovine serum, 1% penicillin-streptomycin. CDDP-resistant NPC cell CNE2/CDDP was cultured in DMEM medium supplemented with CDDP to sustain its drug resistance. Cell viability was detected using the MTT assay. All the 8 derivatives were resolved with DMSO to make a storage solution at 1 M, and CDDP was resolved with phosphate buffer saline (PBS) to make a storage solution at 100 mM. […] Then, MTT was removed and 150 µL DMSO was added into each well and the absorption values were measured at 490 nm using a SpectraMAX M5plate reader (Silicon Valley, CA, USA).
# [2] = system: leukemia, breast, and bladder cancer cells; conditions: cited from earlier work
melting point,Structure (SMILES),IC50 (CNE2),IC50 (LO2),IC50 (HK-1),IC50 (HONE1),IC50 (CNE2/CDDP),IC50 [1],dosage reversing drug resistance in vitro [2]
193.6 to 195 °C,"Cc1ccsc1/C=C1\CC[C@@H]2[C@H]3CCCN4CCC[C@@H](CN2C1=S)[C@@H]34 [3e, 14-((3-methylthiophen-2-yl)methylene)thiomatrine]",148 ± 5.6 µM,243 ± 12.7 µM,180 ± 7.3 µM,185 ± 12.4 µM,452 ± 26.8 µM,,
,O=C1CCC[C@@H]2[C@H]3CCCN4CCC[C@@H](CN12)[C@@H]34 [Matrine],> 1000 µM,> 1000 µM,> 1000 µM,> 1000 µM,> 1000 µM,> 1000 µM,more than 1 mM
166.8 to 167.5 °C,"S=C1/C(=C/c2ccsc2)CC[C@@H]2[C@H]3CCCN4CCC[C@@H](CN12)[C@@H]34 [3c, 14-(thiophen-3-ylmethylene)thiomatrine]",144 ± 10.3 µM,285 ± 20.7 µM,191 ± 11.3 µM,,676 ± 23.8 µM,,
,S=C1/C(=C/c2csc3ccccc23)CC[C@@H]2[C@H]3CCCN4CCC[C@@H](CN12)[C@@H]34 [3a],113 ± 7.2 µM,212 ± 15.3 µM,179 ± 12.1 µM,152 ± 8.4 µM,375 ± 18.1 µM,,
245.7 to 246.3 °C,"S=C1/C(=C/c2cc(Br)cs2)CC[C@@H]2[C@H]3CCCN4CCC[C@@H](CN12)[C@@H]34 [3g, 14-((4-bromothiophen-2-yl)methylene)thiomatrine]",58.3 ± 2.9 µM,68 ± 5.1 µM,90.7 ± 6.6 µM,71.5 ± 4.2 µM,206 ± 11.7 µM,,
